This note sets out measurements from article PMC7796031, “Studies of Coumarin Derivatives for Constitutive Androstane Receptor (CAR) Activation” (Molecules, 2020).

SMILES strings stand for the structures.

The nature of the series: Preliminary pharmacokinetic study, plasma concentration by RP-HPLC-fluorescence. The class given is in vivo, C57BL/6 mice. To be noted: for desired plasma concentration (10 μM) reached: dose 0.5 mg/mouse, desired ~2 μg/mL for scoparone, ~3 μg/mL for 50. From the text:
S23 Preliminary pharmacokinetic studies of scoparone and 6,7-diprenoxycoumarin
Table S1 Blood concentration of scoparone. mouse Dose given (mg) Body weight (g) Time (min) Cal. Conc. (µg/ml) […]
Table S2 Blood concentration of 6,7-diprenoxycoumarin.
Adopt previous study on fraxetin (unpublished result) , a coumarin compound, RP -HPLC -fluorescence method (excitation 380 nm and emission 480 nm ) was applied on analysis of the concentration of scoparone and 6,7 -diprenoxycoumarin. […]
without interference with endogenous plasma constituents. […]
retention time of approximately 7.51 in mouse plasma.
0.01 to 10.00 µg/ml for scoparone and 0.025 to 6.25 µg/ml for 6,7 -diprenoxycoumarin. The relativ e error and coefficient of variance are all below 15 %. The LOQ were 0.01 and 0.005 µg/ml for scoparone and 6,7 - diprenoxycoumarin. Linearity over the investigated concentration was obtained.
After method validation, C57BL/6 mice were given scoparone (i.p.) or 6,7 -diprenoxycoumarin and plasma […]
In pharmacological assay, the desired scoparone […]
the amount of drug increased to 0.5 mg/mice. Thus, the CAR activating effect may not be seen in vivo, which can account for no blood sugar lowering effects of 6,7-diprenoxycoumarin in vivo.
Acetonitrile HPLC-grade (LiChrosolv® ) were purchased from Sigma-Aldrich Chemie GmbH. Deionized water was purified on a Milli-Q system. Scoparone and 6,7-diprenoxycoumarin were synthesized from our […]
lab and purity was > 95 % from HPLC-UV method.
Instrumentation and Chromatographic Condition
Hitachi L-7100 liquid chromatography system (Hitachi, Japan) comprised a Hitachi D-7000 interface, a Hitachi L-7200 auto sampler, a Hitachi L-7400 UV detector and a Hitachi L-2480 FL detector. The HPLC colum consisted of a Thermo Hypurity® RP-18 column (200 × 4.6 mm, 5 µm) connected to a Hichrom ODS guard column. The isocratic elution was applied for scoparone (ACN-H2O = 3:7) and 6,7-diprenoxycoumarin (ACN-H2O = 7:3). The flow rate was set at 1.0 ml/min. The detection fluorescence was set at excitation 380 nm and emission 480 nm. A volume of 20 µL of sample was subjected to HPLC for […]
Animals and Sample Preparation
Eight-week old male or female C57/BL6 mice were acquired from BioLASCO Taiwan Co., Ltd. Experimental animals were allowed to acclimate to the controlled photoperiod (a cycle of 12-hr light/ 12-hr dark), humidity (40-60% relative humidity) and temperature (22 ± 2 °C) with ad libitum supply of standard chow diets and drinking water for one week prior to the experimental treatment in accordance with the Guide for the Care and Use of Laboratory Animals (Institute of Laboratory Animal Resources Commission on Life Sciences, 2011). Acclimated animals were randomly separated into two groups: scoparone-treated or 6,7-diprenoxycoumarin-treated. Mice were administered indicated dose i.p. All mice were anesthetized with Zoetil (10 mg/ml, 0.05 ml/10 gmbw, i.p.) before blood sampling. The blood samples (approximately 300 µL) were […]
centrifuging at 10,000 rpm for 10 min, the plasma samples were obtained. The plasma (50 µL) was mixed with 150 µL ACN, vortexed, and centrifuged for […], 10 mins and at 4 °C. The supernatant was obtained and 20 µL of sample was subjected to HPLC analysis.
Institute of Laboratory Animal Resources Commission on Life Sciences, National Research Council. In Guide for the Care and Use of Laboratory Animals, 8th ed.; National Academy Press: Washington, DC, 2011.

For the compound `COc1cc2ccc(=O)oc2cc1OC` [Compound 39, scoparone], the “desired plasma concentration (10 μM) reached” value is on record as “can be achieved”. Where the note is “Table S1, Study 1 mouse 1, dose given 0.2 mg i.p., 10 min”, this compound had a Blood concentration, Cal. Conc. of 410 ng/mL. Also, under “Table S1, Study 1 mouse 2, dose given 0.2 mg i.p., 60 min”, the Blood concentration, Cal. Conc. turned out to be 260 ng/mL. In addition, the Blood concentration, Cal. Conc. (Table S1, Study 1 mouse 3, dose given 0.2 mg i.p., 315 min) was determined as 40 ng/mL. Under “Table S1, Study 2 mouse 3, dose given 0.5 mg i.p., 320 min”, this compound showed a Blood concentration, Cal. Conc. of 40 ng/mL.
Take `CC(C)=CCOc1cc2ccc(=O)oc2cc1OCC=C(C)C` [Compound 50, 6,7-diprenoxycoumarin]: the “desired plasma concentration (10 μM) reached” value is “cannot be obtained”. Besides, for the setting “Table S2, Study 1 mouse 1, dose given 0.36 mg i.p., 10 min”, the Blood concentration, Cal. Conc. stood at 560 ng/mL. Where the note is “Table S2, Study 1 mouse 2, dose given 0.36 mg i.p., 60 min”, this compound returned a Blood concentration, Cal. Conc. of 80 ng/mL. The compound further came in with a Blood concentration, Cal. Conc. (Table S2, Study 1 mouse 3, dose given 0.36 mg i.p., 110 min) of 70 ng/mL. This compound gave a Blood concentration, Cal. Conc. (Table S2, Study 1 mouse 4, dose given 0.36 mg i.p., 360 min) of 40 ng/mL. For the setting “Table S2, Study 2 mouse 1, dose given 0.5 mg i.p., 11 min”, this compound came in with a Blood concentration, Cal. Conc. of 310 ng/mL. Moreover, the Blood concentration, Cal. Conc. (Table S2, Study 2 mouse 2, dose given 0.5 mg i.p., 60 min) is 120 ng/mL. Where the note is “Table S2, Study 2 mouse 3, dose given 0.5 mg i.p., 318 min”, the Blood concentration, Cal. Conc. was found to be 27 ng/mL.
